Experimental data reported in patent US20250248998A1, “LRRK2 Inhibitors” (Brenig Therapeutics, Inc., priority 2022, published 2025).

What was measured:
LRRK2 WT [1] = target: T1, LRRK2 WT (Homo sapiens, UniProt Q5S007); assay: Enzymatic activity inhibition against LRRK2 WT (ADP-Glo kinase assay, LRRKtide substrate); format: biochemical; design: purchased SignalChem Biotech, Inc. L10-11G-10; conditions: recombinant LRRK2 WT 36 nM, ATP, 1 h at rt, average Ki
Description: Example B. Primary Assays Used to Determine Potency of the LRRK2 Inhibition
Assay for Determining Enzymatic Activity Inhibition Against LRRK2 WT.
Compound activity was determined using recombinant LRRK2 WT protein (SignalChem Biotech, Inc., Cat #L10-11G-10) and LRRKtide substrate (SignalChem Biotech, Inc., Cat #L10-58) in an in vitro enzymatic reaction. The enzymatic reaction was carried out in assay buffer (40 mM TRIS-HCl pH 7.4, 20 mM MgCl2, 0.05 mM DTT, 0.1 mg/mL BSA). The compounds were dispensed into a 384 well Diamond Well Plate (Axigen, Cat #P-384-120SQ-C-S) using the Biomek FX liquid handling system at 80× solutions of compounds in DMSO. The 2× Protein-Substrate mix (final concentration 36 nM of LRRK2 WT and 0.8 μg/μL of LRRKtide) was prepared in the 1× Assay buffer and 4 μL of mixture per well was added into the 384-well white Reaction plate with NBS (Corning, Cat #CLS4513). The 4 μL of LRRKtide substrate w/o LRRK2 WT in the 1× buffer was used for a negative control. Plates were centrifuged for 1 min at 200 g. Next the compounds were added to Reaction plate using Biomek station via following steps: 1 μL of 80× compounds (in DMSO) were mixed thoroughly with 39 μL of 2×10 μM ATP in Assay Buffer, then 4 μL of this mixture was added to Reaction plate with 4 μL of Protein-Substrate mix. Plates were centrifuged for 1 min at 200 g and incubated for 1 hour at rt. Then, 4 μL per well of ADP-Glo reagent (Promega, ADP-Glo™ Kinase Assay, Cat #V9102) was added. Plates were incubated for 30 minutes at rt. Then, 8 μL per well of Kinase detection reagent (Promega, ADP-Glo™ Kinase Assay, Cat #V9102) was added and the luminescence signal was measured with a microplate reader. The % inhibition was then used to calculate the Ki values. The average Ki values are shown in Table B, wherein “A” corresponds to Ki<10.0 nM, “B” corresponds to 10.0 nM K Ki<20.0 nM, “C” 20.0 nM K Ki<50.0 nM, “D” corresponds to 50.0 nM K Ki<100.0 nM and “E” corresponds to Ki>100.0 nM.
Target sequence in this assay (Q5S007 970-2527 limits assumed): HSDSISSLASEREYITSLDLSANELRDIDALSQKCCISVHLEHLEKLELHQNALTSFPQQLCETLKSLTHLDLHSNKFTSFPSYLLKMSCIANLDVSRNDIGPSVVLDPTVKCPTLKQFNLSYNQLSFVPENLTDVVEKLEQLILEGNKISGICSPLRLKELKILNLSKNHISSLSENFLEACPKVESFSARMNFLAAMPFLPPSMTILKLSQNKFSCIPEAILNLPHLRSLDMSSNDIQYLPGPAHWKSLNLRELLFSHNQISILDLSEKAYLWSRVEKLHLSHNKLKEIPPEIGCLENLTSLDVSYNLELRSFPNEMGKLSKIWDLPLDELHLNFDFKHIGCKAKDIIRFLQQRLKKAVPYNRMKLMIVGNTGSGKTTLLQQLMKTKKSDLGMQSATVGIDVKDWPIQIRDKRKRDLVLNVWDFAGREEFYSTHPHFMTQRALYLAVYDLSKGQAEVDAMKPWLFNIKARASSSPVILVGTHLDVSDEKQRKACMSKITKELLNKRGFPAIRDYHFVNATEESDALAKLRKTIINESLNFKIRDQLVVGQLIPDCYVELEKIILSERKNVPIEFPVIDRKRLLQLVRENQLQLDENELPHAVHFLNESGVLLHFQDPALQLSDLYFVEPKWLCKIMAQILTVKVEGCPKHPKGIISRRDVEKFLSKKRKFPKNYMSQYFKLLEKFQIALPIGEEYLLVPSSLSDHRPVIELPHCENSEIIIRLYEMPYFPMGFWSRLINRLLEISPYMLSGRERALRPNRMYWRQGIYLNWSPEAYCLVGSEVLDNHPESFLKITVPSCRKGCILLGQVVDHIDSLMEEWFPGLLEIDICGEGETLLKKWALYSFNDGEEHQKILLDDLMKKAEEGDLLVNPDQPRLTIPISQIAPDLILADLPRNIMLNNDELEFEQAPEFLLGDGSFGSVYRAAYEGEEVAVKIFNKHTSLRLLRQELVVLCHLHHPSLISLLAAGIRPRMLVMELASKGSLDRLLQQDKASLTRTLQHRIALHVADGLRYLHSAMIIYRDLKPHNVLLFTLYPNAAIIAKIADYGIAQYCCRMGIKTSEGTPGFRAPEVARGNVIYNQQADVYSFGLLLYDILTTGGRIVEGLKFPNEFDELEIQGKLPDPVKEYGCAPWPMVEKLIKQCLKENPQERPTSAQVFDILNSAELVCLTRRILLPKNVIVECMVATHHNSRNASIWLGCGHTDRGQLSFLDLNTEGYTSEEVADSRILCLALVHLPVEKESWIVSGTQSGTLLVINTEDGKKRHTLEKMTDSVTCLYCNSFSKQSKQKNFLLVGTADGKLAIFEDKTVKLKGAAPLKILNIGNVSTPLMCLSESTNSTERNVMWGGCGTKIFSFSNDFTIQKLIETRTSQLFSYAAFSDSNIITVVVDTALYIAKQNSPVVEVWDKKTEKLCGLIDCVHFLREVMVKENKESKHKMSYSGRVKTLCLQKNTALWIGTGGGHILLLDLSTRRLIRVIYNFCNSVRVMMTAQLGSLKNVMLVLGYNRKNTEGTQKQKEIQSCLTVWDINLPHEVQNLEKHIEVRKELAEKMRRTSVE

[2] = A549 cytotoxicity assay (CellTiter-Glo); format: cell-based; conditions: human, A549 cells, 3 days of incubation
Description: Example D. A549 Cytotoxicity Assay Used to Determine Safety of the LRRK2 Inhibitors
A549 (ATCC, CCL-185) cells were seeded at a density of 4000 cells per well in a 384-well clear bottom plate (Greiner Cat #781090) in 45 μL total volume of the complete cell culture medium DMEM (PanEco, Cat #C420, Russia) with 10% FBS (HyClone Cat #SV30160.03). The cells were allowed to adhere overnight at 37° C., 5% CO2. The 500× compounds solutions in DMSO (Sigma Cat #D2650) were prepared in the compounds plate (Diamond Well Plate, Axigen, Cat #P-384-120SQ-C-S) and DMSO as a vehicle control was included. The 1 μL aliquot of 500× compounds (Compounds plate) was added to the 49 μL culture medium in the Dilution plate (Diamond Well Plate, Axigen, Cat #P-384-120SQ-C-S), mixed and then the 5 μL aliquots of the 10× compounds solutions was transferred to cells followed by centrifugation at 100 g for 1 min. Final DMSO concentration was 0.2%. After 3 days of incubation the 10 μL per well of CellTiter-Glo (Promega, CAT #G7572) was added to the cells, plate was centrifuged at 100 g for 1 min. The luminescence signal was detected with CLARIOstar Plus (BMG LABTECH) microplate reader.

LRRK2[G2019S] [3] = target: T2, LRRK2[G2019S] (Homo sapiens, UniProt Q5S007, G2019S); assay: Cell-based NanoBRET target engagement assay in HEK293 cells transfected with LRRK2 (G2019S)-NanoLuc fusion vector; design: expressed in transfected cells; host or cells: HEK293 (ATCC); conditions: compound treatment 1 h
In short: (§1)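 HEK293 cells transiently transfected with NanoLuc-fused LRRK2 WT or G2019S (1 μg) plus carrier DNA, treated 1 h with compound (10-dose, 3-fold dilution from 1 μM). Target engagement read by NanoBRET; IC50 fitted only when signal at top concentration was below 5500.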
Target sequence in this assay (Q5S007 whole entry G2019S, the tested form may be a part): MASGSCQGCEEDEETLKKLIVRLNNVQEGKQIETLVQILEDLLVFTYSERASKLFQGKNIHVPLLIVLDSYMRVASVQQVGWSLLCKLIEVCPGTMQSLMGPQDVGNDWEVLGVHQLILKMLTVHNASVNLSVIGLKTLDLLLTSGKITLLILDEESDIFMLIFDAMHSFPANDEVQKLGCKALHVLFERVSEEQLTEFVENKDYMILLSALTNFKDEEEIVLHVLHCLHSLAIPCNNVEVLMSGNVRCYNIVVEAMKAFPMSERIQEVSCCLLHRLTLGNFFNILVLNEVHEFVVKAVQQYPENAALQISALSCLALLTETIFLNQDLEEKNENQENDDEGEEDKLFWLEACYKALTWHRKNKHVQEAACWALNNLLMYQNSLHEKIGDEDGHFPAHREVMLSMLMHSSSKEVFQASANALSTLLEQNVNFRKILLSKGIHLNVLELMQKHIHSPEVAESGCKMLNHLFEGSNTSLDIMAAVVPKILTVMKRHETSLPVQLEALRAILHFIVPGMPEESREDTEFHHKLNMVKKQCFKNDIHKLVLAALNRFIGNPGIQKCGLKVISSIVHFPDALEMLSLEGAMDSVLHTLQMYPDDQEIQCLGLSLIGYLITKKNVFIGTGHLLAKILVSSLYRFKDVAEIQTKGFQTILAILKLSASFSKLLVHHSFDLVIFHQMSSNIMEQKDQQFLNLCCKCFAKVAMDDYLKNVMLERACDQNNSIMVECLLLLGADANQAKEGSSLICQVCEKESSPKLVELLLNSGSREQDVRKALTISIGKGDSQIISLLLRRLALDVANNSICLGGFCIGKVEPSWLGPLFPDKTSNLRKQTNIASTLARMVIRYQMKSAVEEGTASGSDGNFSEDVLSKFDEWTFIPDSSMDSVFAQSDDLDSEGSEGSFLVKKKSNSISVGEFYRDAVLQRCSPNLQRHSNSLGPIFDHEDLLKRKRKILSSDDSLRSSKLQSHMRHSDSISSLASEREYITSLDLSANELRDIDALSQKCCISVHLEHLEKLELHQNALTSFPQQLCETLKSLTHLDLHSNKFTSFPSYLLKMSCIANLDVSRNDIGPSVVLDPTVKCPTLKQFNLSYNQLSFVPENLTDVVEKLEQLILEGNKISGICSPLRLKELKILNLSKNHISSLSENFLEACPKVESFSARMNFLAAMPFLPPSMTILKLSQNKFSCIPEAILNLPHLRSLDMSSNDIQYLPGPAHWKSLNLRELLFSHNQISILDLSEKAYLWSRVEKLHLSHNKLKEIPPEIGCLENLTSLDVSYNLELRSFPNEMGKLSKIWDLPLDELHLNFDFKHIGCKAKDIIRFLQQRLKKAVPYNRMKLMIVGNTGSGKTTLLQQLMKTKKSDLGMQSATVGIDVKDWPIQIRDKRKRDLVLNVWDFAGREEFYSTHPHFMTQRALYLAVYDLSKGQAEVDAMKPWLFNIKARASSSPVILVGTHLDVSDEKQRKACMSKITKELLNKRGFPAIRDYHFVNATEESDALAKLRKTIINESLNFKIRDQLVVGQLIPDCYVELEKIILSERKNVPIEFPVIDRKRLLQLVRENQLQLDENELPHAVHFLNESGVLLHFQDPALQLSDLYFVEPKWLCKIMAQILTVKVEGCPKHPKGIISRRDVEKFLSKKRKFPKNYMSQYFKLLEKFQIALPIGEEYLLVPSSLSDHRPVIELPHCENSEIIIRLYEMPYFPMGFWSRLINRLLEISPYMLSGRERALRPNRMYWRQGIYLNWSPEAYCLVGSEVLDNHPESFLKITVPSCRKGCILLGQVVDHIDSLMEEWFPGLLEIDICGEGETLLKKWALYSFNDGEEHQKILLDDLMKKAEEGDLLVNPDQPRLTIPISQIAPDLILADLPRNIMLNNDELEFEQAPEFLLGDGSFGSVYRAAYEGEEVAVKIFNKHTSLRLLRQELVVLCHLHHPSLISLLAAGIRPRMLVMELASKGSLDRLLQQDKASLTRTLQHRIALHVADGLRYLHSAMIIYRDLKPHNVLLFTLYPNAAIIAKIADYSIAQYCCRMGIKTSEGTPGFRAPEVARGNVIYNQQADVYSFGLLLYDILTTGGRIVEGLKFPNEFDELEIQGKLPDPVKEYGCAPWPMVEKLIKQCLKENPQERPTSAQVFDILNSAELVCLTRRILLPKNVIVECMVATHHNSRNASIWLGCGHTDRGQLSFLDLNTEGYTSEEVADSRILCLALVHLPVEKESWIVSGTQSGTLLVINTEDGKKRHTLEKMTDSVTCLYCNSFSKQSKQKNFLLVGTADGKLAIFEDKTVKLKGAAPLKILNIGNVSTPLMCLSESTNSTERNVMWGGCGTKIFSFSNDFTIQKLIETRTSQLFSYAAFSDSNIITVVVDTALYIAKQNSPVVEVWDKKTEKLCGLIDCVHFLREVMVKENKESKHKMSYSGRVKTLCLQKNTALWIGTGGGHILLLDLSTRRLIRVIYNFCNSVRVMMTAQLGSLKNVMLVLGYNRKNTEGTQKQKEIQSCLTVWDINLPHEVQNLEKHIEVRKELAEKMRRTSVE

LRRK2[G2019S] [4] = target: T2, LRRK2[G2019S]; assay: Enzymatic activity inhibition against LRRK2[G2019S] (ADP-Glo kinase assay, LRRKtide substrate); format: biochemical; design: purchased SignalChem Biotech, Inc. L10-12GG-10; conditions: recombinant LRRK2[G2019S] 36 nM, ATP, 1 h at rt, average Ki
Description: Example A. Primary Assays Used to Determine Potency of the LRRK2 Inhibition
Assay for Determining Enzymatic Activity Inhibition Against LRRK2[G2019S].
Compound activity was determined using recombinant LRRK2[G2019S] protein (SignalChem Biotech, Inc., Cat #L10-12GG-10) and LRRKtide substrate (SignalChem Biotech, Inc., Cat #L10-58) in an in vitro enzymatic reaction. The enzymatic reaction was carried out in assay buffer (40 mM TRIS-HCl pH 7.4, 20 mM MgCl2, 0.05 mM DTT, 0.1 mg/mL BSA). The compounds were dispensed into a 384 well Diamond Well Plate (Axigen, Cat #P-384-120SQ-C-S) using the Biomek FX liquid handling system at the 80× solutions of compounds in DMSO. The 2× Protein-Substrate mix (final concentration 36 nM of LRRK2[G2019S] and 0.8 μg/μL of LRRKtide) was prepared in 1× Assay buffer and 4 μL of mixture per well was added into the 384-well white Reaction plate with NBS (Corning, Cat #CLS4513). The 4 μL of LRRKtide substrate w/o LRRK2[G2019S] in the 1× buffer was used for a negative control. Plates were centrifuged for 1 min at 200 g. Next the compounds were added to the reaction plate using Biomek station via following steps: 1 μL of 80× compounds (in DMSO) were mixed thoroughly with 39 μL of 2×10 μM ATP in Assay Buffer, then 4 μL of this mixture was added to Reaction plate with 4 μL of Protein-Substrate mix. Plates were centrifuged for 1 min at 200 g and incubated for 1 h at rt. Then, 4 μL per well of ADP-Glo reagent (Promega, ADP-Glo™ Kinase Assay, Cat #V9102) was added. Plates were incubated for 30 min at rt. Then, 8 μL per well of Kinase detection reagent (Promega, ADP-Glo™ Kinase Assay, Cat #V9102) was added and the luminescence signal was measured with a microplate reader. The luminescence signal was detected with CLARIOstar Plus (BMG LABTECH) microplate reader. The % inhibition was then used to calculate the Ki values. The average Ki values are shown in Table A, wherein “A” corresponds to Ki<5.0 nM, “B” corresponds to 5.0 nM≤Ki<10.0 nM, “C” 10.0 nM≤Ki<50.0 nM, “D” corresponds to 50.0 nM≤Ki<100.0 nM and “E” corresponds to Ki>100.0 nM.
Target sequence in this assay (Q5S007 970-2527 G2019S limits assumed): as the sequence (Q5S007 970-2527 limits assumed) above, with G1050S counted along it

LRRK2 WT [5] = target: T1, LRRK2 WT; assay: Cell-based NanoBRET target engagement assay in HEK293 cells transfected with LRRK2 WT-NanoLuc fusion vector; design: expressed in transfected cells; host or cells: HEK293 (ATCC); conditions: compound treatment 1 h
In short: as §1
Target sequence in this assay (Q5S007 whole entry): as the sequence (Q5S007 whole entry G2019S, the tested form may be a part) above, with S2019G counted along it

Compound	Ki (LRRK2 WT [1]) [µM]	IC50 (LRRK2[G2019S] [3]) [µM]	Ki (LRRK2[G2019S] [4]) [µM]	IC50 (LRRK2 WT [5]) [µM]	CC50 at 3 days [2] [µM]
Cn1nc(-c2n[nH]c3ccc(OC4(C)CC4)cc23)cc(N2CCOCC3(CC3)C2)c1=O [Compound 52, 2-methyl-6-[5-(1-methylcyclopropoxy)-1H-indazol-3-yl]-4-(5-oxa-8-azaspiro[2.6]nonan-8-yl)pyridazin-3-one]	≤ 0.01	≤ 0.05	≤ 0.005	≤ 0.05	> 10
Cn1nc(-c2n[nH]c3ccc(OC4(C)CC4)cc23)cc(N2CCC3(CCC3)C2)c1=O [Compound 56, 4-(6-azaspiro[3.4]octan-6-yl)-2-methyl-6-[5-(1-methylcyclopropoxy)-1H-indazol-3-yl]pyridazin-3-one]	≤ 0.01	≤ 0.05	≤ 0.005	≤ 0.05	> 10
CC(C)Oc1ccc2[nH]nc(-c3cc(N4CCOCC4)c(=O)n(C)n3)c2c1 [Compound 14, 6-(5-isopropoxy-1H-indazol-3-yl)-2-methyl-4-morpholino-pyridazin-3-one]	≤ 0.01	≥ 0.1	≤ 0.005	≥ 0.1	> 10
CC1CCN(c2cc(-c3n[nH]c4ccc(OC(C)C)cc34)cnn2)C1 (centres unmarked) [Compound 3, 5-isopropoxy-3-[6-(3-methylpyrrolidin-1-yl)pyridazin-4-yl]-1H-indazole]	≤ 0.01	≥ 0.1	≤ 0.005	≥ 0.1	> 10
CC(C)Oc1ccc2[nH]nc(-c3cnnc(N4CCC(O)C4)c3)c2c1 (stereo in doubt) [Compound 2, (R)-1-(5-(5-isopropoxy-1H-indazol-3-yl)pyridazin-3-yl)pyrrolidin-3-ol]	0.01 to 0.02	≥ 0.1	0.005 to 0.01	≥ 0.1	> 10

Continued, in another order:

Ki (LRRK2 WT [1]) [µM]	IC50 (LRRK2[G2019S] [3]) [µM]	Ki (LRRK2[G2019S] [4]) [µM]	IC50 (LRRK2 WT [5]) [µM]	Compound	CC50 at 3 days [2] [µM]
≤ 0.01	≤ 0.05	≤ 0.005	≤ 0.05	C[C@@H]1CN(c2cc(-c3n[nH]c4ccc(OC5(C)CC5)cc34)nn(C)c2=O)C[C@H](C)O1 [Compound 50, 4-[(2S,6R)-2,6-dimethylmorpholin-4-yl]-2-methyl-6-[5-(1-methylcyclopropoxy)-1H-indazol-3-yl]pyridazin-3-one]	> 10
≤ 0.01	≤ 0.05	≤ 0.005	≤ 0.05	Cn1nc(-c2n[nH]c3ccc(OC4(C)CC4)cc23)cc(N2CCOCC2)c1=O [Compound 27, 2-methyl-6-[5-(1-methylcyclopropoxy)-1H-indazol-3-yl]-4-morpholino-pyridazin-3-one]	> 27
≤ 0.01	≤ 0.05	≤ 0.005	≤ 0.05	Cn1nc(-c2n[nH]c3ccc(OC4(C)CC4)cc23)cc(N2CC(C)(C)C3COCC32)c1=O (centres unmarked) [Compound 48, 4-(3,3-dimethyl-3a,4,6,6a-tetrahydro-2H-furo[3,4-b]pyrrol-1-yl)-2-methyl-6-[5-(1-methylcyclopropoxy)-1H-indazol-3-yl]pyridazin-3-one]	> 10
≤ 0.01	≤ 0.05	≤ 0.005	≤ 0.05	CC(C)Oc1ccc2[nH]nc(-c3cc(N4CCCC4)c(=O)n(C)n3)c2c1 [Compound 44, 6-(5-isopropoxy-1H-indazol-3-yl)-2-methyl-4-pyrrolidin-1-yl-pyridazin-3-one]	> 10
≤ 0.01	≤ 0.05	≤ 0.005	≤ 0.05	Cn1nc(-c2n[nH]c3ccc(OC4(C)CC4)cc23)cc(N2CCCC(F)(F)C2)c1=O [Compound 54, 4-(3,3-difluoro-1-piperidyl)-2-methyl-6-[5-(1-methylcyclopropoxy)-1H-indazol-3-yl]pyridazin-3-one]	> 10
